Assay results reported in patent US6387881B1, “Inhibitors and substrates of thrombin” (priority 1992, dated 2002).
Values joined by “and” are separate entries in the source; they are usually repeats but may differ in a detail not shown here. Equal entries are not always repeated. Where two headings read alike, the source gives them in different places.

Legend:
[1] = test system: 111indium-labelled platelets; test: Deposition of 111indium-labelled platelets after intravenous dose; assay type: in vivo, New Zealand white rabbits
Source text: M. Hero, K. D. Butler, C. […] Peripheral blood pressure was monitored by a pressure sensor in the carotid artery.

Xa = molecular target: T1, Xa (Homo sapiens, UniProt P00742); test: IC50 against Xa; assay type: biochemical
T1 construct: Plasmin; Xa; Urokinase
T1 sequence (P00742 41-179 limits assumed): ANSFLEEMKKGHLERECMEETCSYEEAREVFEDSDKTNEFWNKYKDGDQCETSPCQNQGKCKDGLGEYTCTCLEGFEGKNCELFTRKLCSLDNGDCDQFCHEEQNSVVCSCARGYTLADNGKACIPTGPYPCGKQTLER
T1 sequence (P00742 235-488 limits assumed): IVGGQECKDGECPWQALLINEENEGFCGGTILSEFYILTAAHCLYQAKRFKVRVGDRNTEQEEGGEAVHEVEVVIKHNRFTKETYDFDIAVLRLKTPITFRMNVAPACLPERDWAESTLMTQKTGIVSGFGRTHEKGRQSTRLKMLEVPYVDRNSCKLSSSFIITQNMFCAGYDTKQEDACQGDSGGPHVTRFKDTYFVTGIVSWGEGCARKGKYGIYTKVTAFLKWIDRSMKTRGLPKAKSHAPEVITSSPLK

Kalhikrein = test: IC50 against kallikrein; assay type: biochemical
[2] = Peripheral blood pressure after intravenous dose; assay type: in vivo, New Zealand white rabbits
Source text: […] R. May, C. M. Hero, K. D. Butler, C. P. Page, JOURNAL OF PHARMACOLOGICAL METHODS, 24, pp 1-35, 1990. Peripheral blood pressure was monitored by a pressure sensor in the carotid artery.

Plasmin = Plasmin (Homo sapiens, UniProt P00747); test: IC50 against plasmin; assay type: biochemical
Chain of Plasmin (P00747 97-580 limits assumed, species assumed): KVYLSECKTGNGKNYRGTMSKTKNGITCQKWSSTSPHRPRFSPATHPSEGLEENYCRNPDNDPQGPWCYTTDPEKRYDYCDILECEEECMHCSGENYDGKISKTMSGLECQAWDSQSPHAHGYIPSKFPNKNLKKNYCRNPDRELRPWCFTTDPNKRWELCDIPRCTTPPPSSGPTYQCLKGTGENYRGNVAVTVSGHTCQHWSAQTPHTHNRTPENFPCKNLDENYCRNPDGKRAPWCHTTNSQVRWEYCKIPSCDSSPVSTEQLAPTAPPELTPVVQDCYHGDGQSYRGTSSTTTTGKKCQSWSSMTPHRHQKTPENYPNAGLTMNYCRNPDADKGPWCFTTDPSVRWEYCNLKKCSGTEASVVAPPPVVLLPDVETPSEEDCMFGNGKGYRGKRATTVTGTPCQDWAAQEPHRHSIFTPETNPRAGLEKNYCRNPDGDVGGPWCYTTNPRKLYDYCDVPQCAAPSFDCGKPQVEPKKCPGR
Chain of Plasmin (P00747 581-810 limits assumed, species assumed): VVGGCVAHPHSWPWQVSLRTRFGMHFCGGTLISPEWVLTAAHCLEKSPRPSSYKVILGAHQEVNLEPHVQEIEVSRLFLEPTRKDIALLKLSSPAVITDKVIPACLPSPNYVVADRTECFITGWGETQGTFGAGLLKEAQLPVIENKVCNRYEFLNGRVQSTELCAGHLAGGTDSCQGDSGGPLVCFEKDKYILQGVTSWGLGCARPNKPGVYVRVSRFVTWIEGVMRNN

Urokinase = Urokinase (Homo sapiens, UniProt P00749); test: IC50 against urokinase; assay type: biochemical
[3] = IC50 with and without incubation (enzyme not given); assay type: biochemical
human α-thrombin = human α-thrombin (Homo sapiens, UniProt P00734); test: biochemical; assay type: biochemical; details: read-out: Ki
Protocol: The inhibition of human α-thrombin was determined by the inhibition of the enzyme catalyzed hydrolysis of three different concentrations of the chromogenic substrate S-2238.
200 μl of sample or buffer and 50 μl of S-2238 were incubated at 37° C. for 1 min and 50 μl of human α-thrombin (0.25 NIHu/ml) was added. The initial rate of inhibited and uninhibited reactions were recorded at 405 nm. The increase in optical density was plotted according to the method of Lineweaver and Burke. The Km and apparent Km were determined and Ki was calculated using the relationship: [formula]

plasma samples = test: Ex-vivo APTT; assay type: in vivo, New Zealand white rabbits; design: unit not given here; details: 1 mg/kg i.v. bolus, rabbit
Protocol: A volume of 150 μl of citrated (3.2%) normal human plasma was incubated at 37° C. with sample (20 μl) or buffer (20 μl, control) for 1 min. To the solution was added reconstituted “AUTOMATED APTT” (available from Organon Teknika, 0.1 ml). Each solution was activated at 37° C. for 5 min.
After activation, calcium chloride (0.1 ml, 0.025M, prewarmed at 37° C.) was added and clot detection was timed using a “semiautomated coagulometer” (Nach, Schnicter und Gross).
(§1) Data was obtained as for in-vitro tests, but using plasma samples obtained at 0, 1, 10, 30 and 60 minutes after dosing of 1 mg/kg, i.v. bolus injection in a marginal ear vein in New Zealand white rabbits, which were anaesthetized from a canula in the carotid artery. [drawing 18]

[4] = test system: bovine thrombin in plasma samples; test: Ex-vivo TT; assay type: in vivo, New Zealand white rabbits; design: key: thrombin (coagulation) time in seconds; details: 1 mg/kg i.v. bolus, rabbit
Protocol: (§2) A volume of 150 μl of citrated normal human plasma and 20 μl of buffer or sample were warmed at 37° C. for 1 min. Coagulation was started by adding 150 ul of freshly prepared bovine thrombin (5 NIHu/ml saline) and the coagulation time was recorded on a coagulometer.
(§3) A phosphate buffer, pH 7.8, containing 0.1% bovine serum albumine and 0.02% sodium azide was used. The samples were dissolved in DMSO and diluted with the buffer. When no inhibitor was used DMSO was added to the buffer to the same concentration as that used in the samples. The inhibitor concentrations were plotted against the thrombin times in a semilogarithmic graph from which the inhibitor concentration that caused a doubling (40 sec) of the thrombin time was determined.
as §1

[5] = molecular target: T2, bovine thrombin in citrated normal human plasma (Bos taurus, UniProt P00735); test: Plasma thrombin time (TT), in vitro; assay type: biochemical; details: inhibitor concentration that caused a doubling of the thrombin time
T2 construct: freshly prepared bovine thrombin (5 NIHu/ml saline)
Protocol: as §2, §3

[6] = single value given, incubation not given, read-out: Xa no inc/inc
[7] = single value given, incubation not given, read-out: Kalhikrein no inc/inc
[8] = single value given, incubation not given, read-out: Plasmin no inc/inc
[9] = single value given, incubation not given, read-out: Urokinase no inc/inc
[10] = no incubation, read-out: IC50 No Incubations
[11] = with incubation, read-out: IC50 Inc.

| Molecule | PLATELET ACCUMULATION (% OF NORMAL) LEG ([1]; 4 mg/kg iv. dose) | PLATELET ACCUMULATION (% OF NORMAL) LUNG ([1]; 4 mg/kg iv. dose) | IC50 (Xa; [6]) [nM] | IC50 (Kalhikrein; [7]) [nM] | BLOOD PRESSURE Δ% of NORM ([2]; 4 mg/kg iv. dose) | IC50 (Plasmin; [8]) [nM] | IC50 (Urokinase; [9]) [nM] | IC50 [3, 10] [nM] | IC50 [3, 11] [nM] | BLOOD PRESSURE Δ% of NORM ([2]; 1 mg/kg i.v. dose) | other results |
| --- | --- | --- | --- | --- | --- | --- | --- | --- | --- | --- | --- |
| CCC(C)CC(NC(=O)[C@@H]1CCCN1C(=O)[C@@H](Cc1ccccc1)NC(=O)OCc1ccccc1)B1OC2CC3CC(C3(C)C)C2(C)O1 (stereo partly drawn) [Compound 22, Z-D-Phe-Pro-BoroMbg-OPin] | 11%, TRANSIENT % OF NORMAL | NONE | 3860 | 12900 | 0 Δ% of NORM | 11500 | 9130 | 7 |  |  |  |
| CCCCCC(NC(=O)[C@@H]1CCCN1C(=O)[C@H](N)C(c1ccccc1)c1ccccc1)P(=O)(Oc1ccccc1)Oc1ccccc1 (stereo partly drawn) [Compound 23, D-Dpa-Pro-Pgl^P(OPh)2] |  |  |  |  |  |  |  | 187 | 0.938 |  | Ki (human α-thrombin; human α-thrombin, S-2238, 37° C.): 480 nM |
| CC1(C)C2CC3OB(C(CCCSC(=N)N)NC(=O)C4CCCN4C(=O)C(Cc4ccccc4)NC(=O)OCc4ccccc4)OC3(C)C1C2 [Compound 25, Z-D-Phe-Pro-BoroIrg-OPin] |  |  | 14.1 | 334 | 100% Δ% of NORM | 8.4 | 75 | 1500 | 68 | SMALL |  |
| COCCCC(NC(=O)[C@@H]1CCCN1C(=O)[C@H](N)Cc1ccccc1)P(=O)(Oc1ccccc1)Oc1ccccc1 (stereo partly drawn) [Compound 40, H-D-Phe-Pro-Mpg^P(OPh)2] |  |  |  |  |  |  |  | 16600 | 11.8 |  | IC50 (Xa; no incubation (first value of cell), read-out: Xa no inc): > 20900 nM; IC50 (Xa; with incubation (second value of cell), read-out: Xa inc): > 20900 nM; IC50 (Kalhikrein; no incubation (first value of cell), read-out: Kalhikrein no inc): > 20900 nM; IC50 (Kalhikrein; with incubation (second value of cell), read-out: Kalhikrein inc): > 20900 nM; Ki (human α-thrombin): 18.8 nM; IC50 (Plasmin; no incubation (first value of cell), read-out: Plasmin no inc): > 20900 nM; IC50 (Urokinase; no incubation (first value of cell), read-out: Urokinase no inc): > 20900 nM; IC50 (Urokinase; with incubation (second value of cell), read-out: Urokinase inc): > 20900 nM |
| CC1(C)OB(C(Cc2ccccc2)NC(=O)C2CCCN2C(=O)C(Cc2ccccc2)NC(=O)OCc2ccccc2)OC1(C)C [Compound 41, Z-D-Phe-Pro-BoroPhe-OPinac] | NONE | NONE | 7940 | 16700 | 21% Δ% of NORM | 37300 | 6670 | 12.8 |  |  |  |
| COCCCC(NC(=O)C1CCCN1C(=O)C(Cc1ccccc1)NC(=O)OCc1ccccc1)B1OC2CC3CC(C3(C)C)C2(C)O1 [Compound 50, Z-D-Phe-Pro-BoroMpg-OPin] |  |  | 1720 | 7260 |  | 3230 | 3630 | 0.7 |  |  |  |
| CC(C)(C)OC(=O)NC(Cc1ccccc1)C(=O)N1CCCC1C(=O)NC(C=O)Cc1cnc[nH]1 [Compound 53, Boc-D-Phe-Pro-His-H] | NONE | NONE | > 413000 | > 413000 | 0 Δ% of NORM | > 413000 | > 413000 |  |  | NONE | PLATELET ACCUMULATION (% OF NORMAL) LEG ([1]; 1 mg/kg i.v. dose): NONE; PLATELET ACCUMULATION (% OF NORMAL) LUNG ([1]; 1 mg/kg i.v. dose): NONE; EX-VIVO A.P.T.T. (plasma samples; time 0 min): 32.9 and 24.9; EX-VIVO A.P.T.T. (plasma samples; time 1 min): 41.5 and 27.9 and 30.9; EX-VIVO A.P.T.T. (plasma samples; time 10 min): 39.9 and 29.9 and 26 and 25.9; EX-VIVO A.P.T.T. (plasma samples; time 30 min): 31.4 and 30.4 and 25.4 and 26.1; EX-VIVO A.P.T.T. (plasma samples; time 60 min): 28.9 and 27.5 and 25.9; EX-VIVO T.T. ([4]; time 0 min): 26 and 27 and 24 and 24.9; EX-VIVO T.T. ([4]; time 1 min): 86.9 and 83.5 and 80.9 and 74; EX-VIVO T.T. ([4]; time 10 min): 32 and 30 and 29.9; EX-VIVO T.T. ([4]; time 30 min): 24.4 and 25 and 25.9 and 25.4; EX-VIVO T.T. ([4]; time 60 min): 24.4 and 23.9 and 22.9 |
| N=C(N)Nc1ccc(CC(NC(=O)[C@@H]2CCCN2C(=O)[C@H](N)Cc2ccccc2)C(=O)CCC(=O)N2CCCCC2)cc1 (stereo partly drawn) [D-Phe-Pro-Gpa-k--Gly-Pip, D-Phe-Pro-Gpa--k--Gly-Pip] |  |  |  |  |  |  |  |  |  |  | Ki (human α-thrombin): 1300 nM; TT [5]: 4.9 µM |
| Bzl-Pros-Pro-BoroIrg-Opin [Compound 44] |  |  | 512 | 1080 |  | 153 | 121 | 1300 |  |  |  |
| Z-D-Phe-Pro-BoroMbg-OPin [Compound 59] |  |  |  |  |  |  |  |  |  | NONE | PLATELET ACCUMULATION (% OF NORMAL) LEG ([1]; 1 mg/kg i.v. dose): NONE; PLATELET ACCUMULATION (% OF NORMAL) LUNG ([1]; 1 mg/kg i.v. dose): NONE; EX-VIVO A.P.T.T. (plasma samples; time 0 min): 42 and 59.5 and 43.9 and 58; EX-VIVO A.P.T.T. (plasma samples; time 1 min): 111.4 and 111 and 102.9 and 126; EX-VIVO A.P.T.T. (plasma samples; time 10 min): 48.9 and 53 and 60.5 and 67; EX-VIVO A.P.T.T. (plasma samples; time 30 min): 34.9 and 49 and 59 and 53.9; EX-VIVO A.P.T.T. (plasma samples; time 60 min): 40.4 and 48.4 and 65.5 and 62; EX-VIVO T.T. ([4]; time 0 min): 28.9 and 22.5 and 22.4 and 23.5; EX-VIVO T.T. ([4]; time 1 min): 111 and 106 and 171.5 and 168.5; EX-VIVO T.T. ([4]; time 10 min): 35.9 and 34 and 37.9 and 38.4; EX-VIVO T.T. ([4]; time 30 min): 29 and 30 and 32 and 31; EX-VIVO T.T. ([4]; time 60 min): 28.4 and 28.5 and 27.9 and 28 |
